Assay results: patent US4603132A, “Phenothiazine compounds with anti-bronchospastic activity and pharmaceutical compositions containing them” (priority 1984, dated 1986)
Like-named read-outs stand apart in the source and are kept apart here.

Tests used:
bronchial asthma = details: literature, in words; cited from earlier work
[1] = system: isolated ileum of guinea pig (serotonine); assay: spasm induced by serotonine in the isolated ileum of guinea pig
[2] = system: isolated ileum of guinea pig (ACh); assay: spasm induced by ACh in the isolated ileum of guinea pig
[3] = acute toxicity test in the mouse; assay type: in vivo; details: for LD50: in vivo
[4] = system: hypotension induced by ACh i.v.; assay: inhibition of the hypotension induced by ACh i.v. in the anestetized rat (systemic effect; absorption by inhalation); assay type: in vivo; details: for absorption through inhalatory route: i.v. vs inhalation, in words
Description: The absorption of compound (I) by inhalation in comparison with mequitazine has been studied by comparing their sistemic effects with intravenous and inhalatory routes. The inhibiting effect of the tested compounds on the hypotension induced by ACh i.v. in the anestetized rat has been used.

[5] = system: isolated trachea of guinea pig (methacholine); details: for IC50: Cavia porcellus; for activity greater than mequitazine: isolated guinea pig trachea, methacholine
[6] = system: bronchospasm induced by ACh aerosol; details: for activity in bronchospasm induced by ACh aerosol: awake guinea pig, in words, i.v. in b22, mequitazine at doses up to 20 times higher or essentially subtoxic
[7] = system: isolated trachea of guinea pig (KCl); assay: spasm induced by KCl in the isolated trachea of guinea pig; details: for IC50: Cavia porcellus
[8] = system: bronchospasm induced by ACh i.v.; details: for ED50: Cavia porcellus, iv, anestetized guinea pig, ACh i.v.
[9] = system: isolated ileum of guinea pig (histamine); assay: spasm induced by histamine in the isolated ileum of guinea pig
[10] = system: bronchospasm induced by histamine aerosol; details: for ED50: Cavia porcellus, iv
[11] = system: isolated ileum of guinea pig (PGF2 alpha); assay: spasm induced by PGF2 alpha in the isolated ileum of guinea pig
bronchospasm = assay: anti-bronchospastic activity (general statement); details: in words
[12] = system: isolated trachea of guinea pig (histamine); assay: spasm induced by histamine in the isolated trachea of guinea pig; details: for IC50: Cavia porcellus
H1 receptors = details: literature, in words, cited from earlier work
[13] = listed as 3-(10-H-phenothiazin-methyl)-1-methyl-1-azoniabicyclo[2.2.2]-octane iodide
[14] = vs classic anti-histaminic drugs

| Compound | effect in bronchial asthma / bronchial hyperreactivity (bronchial asthma) | LD50 ([3]; iv) [mg/kg] | LD50 ([3]; oral route) [mg/kg] | absorption through inhalatory route ([4]; anestetized rat) | IC50 [5] [µM] | IC50 [7] [µM] | ED50 ([8]; compound by inhalatory route) [µmol/kg] | ED50 ([8]; compound by venous route) [µmol/kg] | ED50 [10] [µmol/kg] | anti-bronchospastic activity (bronchospasm) | IC50 [12] [µM] | also measured |
| --- | --- | --- | --- | --- | --- | --- | --- | --- | --- | --- | --- | --- |
| CN(C)CCC(c1ccc(Cl)cc1)c1ccccn1 (centres unmarked) [clopheniramine] | singularly inefficacious in the bronchial asthma |  |  |  |  |  |  |  |  |  |  |  |
| C[N+]12CCC(CC1)C(CN1c3ccccc3Sc3ccccc31)C2 (centres unmarked) [compound (I), 3-(10-H-phenothiazin-methyl)-1-methyl-1-azoniabicyclo[2.2.2]-octane iodide] |  | 3.15 | ~700 | very poorly absorbed | 0.034 | 38 | 0.026 | 0.051 | 0.12 | powerful anti-bronchospastic activity | 0.074 | times more active than mequitazine [1]: 6 times; times more active than mequitazine [2]: 7 times; absorption by oral route ([3]; inferred from i.v. vs oral LD 50, in words): very modest; ED50 ([4]; Rattus norvegicus, iv): 1.17 µmol/kg; absorption lower than that of mequitazine ([4]; inhalatory route): at least 24 times; ED50 ([4]; inhibition of hypotension, anestetized rat, inhalatory administration): can not be calculated (25 μmol/kg); activity greater than mequitazine [5]: 1200 times; activity greater than mequitazine [5, 13]: 1000 times; ED50 ([6]; Cavia porcellus, iv): 0.41 µmol/kg; activity in bronchospasm induced by ACh aerosol [6]: intense and dose-dependent activity; activity in bronchospasm induced by ACh aerosol [6, 13]: remarkable power; activity greater than mequitazine ([7]; isolated guinea pig trachea, KCl): 3 times; anti-bronchospastic activity higher than that of mequitazine ([8]; inhalatory route): 20 times; activity higher than that of mequitazine ([8]; venous route): 13 times; times more active than mequitazine [9]: 15 times; activity higher than that of mequitazine ([10]; awake guinea pig, histamine aerosol, i.v.): about 5 times; times more active than mequitazine [11]: 2 times; activity greater than mequitazine ([12]; isolated guinea pig trachea, histamine): 50 times |
| COc1ccc(CN(CCN(C)C)c2ccccn2)cc1 [mepyramine] | singularly inefficacious in the bronchial asthma |  |  |  |  |  |  |  |  |  |  |  |
| c1ccc2c(c1)Sc1ccccc1N2CC1CN2CCC1CC2 (centres unmarked) [mequitazine, reference compound] | protective action | 23.7 | ~350 | complete absorption | 40 | 110 | 0.499 | 0.674 | 0.65 | very slightly active or even inactive | 3.7 | ED50 ([4]; inhaled or nasal, inhibition of hypotension, anestetized rat, inhalatory administration, read-out: ED 50): 4.06 µmol/kg; ED50 ([4]; iv, inhibition of hypotension, anestetized rat, i.v. route, read-out: ED 50): 4.01 µmol/kg; action on H1 receptors (H1 receptors): histamine antagonism at the level of the H1 receptors; duration of action (H1 receptors; [14]): long lasting action; side effects of the CNS level (H1 receptors; [14]): scarcity of side effects |
| CC(CN1c2ccccc2Sc2ccccc21)N(C)C (centres unmarked) [promethazine] | singularly inefficacious in the bronchial asthma |  |  |  |  |  |  |  |  |  |  |  |
